Measurements reported in US6117841A, “Substituted peptidylamine calcium channel blockers” (Warner-Lambert Company, priority 1999, dated 2000).
pIC50: −log10 of the molar value. Like-named read-outs stand apart in the source and are kept apart here.

Target: T1, N-type Ca^2+ Channel (Homo sapiens, UniProt Q00975)
T1 construct: host or cells: IMR-32 cells differentiated with dibutyryl cAMP and bromodeoxyuridine
Test: Measurement of N-type Ca2+ channel blocking potencies in IMR-32 cells using the fluorescent Ca2+ indicator Indo-1
Type: cell-based
Details: IMR-32 cells
Method: Measurement of N-type Ca^2+ Channel Blocking Potencies of Compounds in IMR-32 Cells Using the Fluorescent Ca^2 + Indicator Indo-1
IMR-32 cells are a human tumoral cell line of neural origin. […] Calcium flux into these cells may be induced by stimulation with elevated potassium concentrations. The L-channel component of calcium flux may be blocked by adding 5 μM nitrendipine. The remaining component of calcium entry into the IMR-32 cells is due to calcium flux through N-type calcium channels. Intracellular calcium concentrations are measured using the fluorescent calcium indicator Indo-1. The effect of drug concentration on calcium uptake is studied.
The IMR-32 cell line was obtained from the American Type Culture Collection (Rockville, Md.). Cells were grown in Eagle's Minimum Essential Medium with Earle's salts supplemented with 10% fetal bovine serum, 2 mM L-Gln and antibiotic/antimycotic mixture (Gibco). At approximately 80% confluency, differentiation was induced by the addition of 1 mM dibutyryl cAMP and 2.5 μM bromodeoxyuridine to the medium. After 7 to 13 days of differentiation, cells were detached using 0.5 mM EDTA and loaded with 5 μM Indo-1 acetoxymethyl ester (Molecular Probes, Eugene, Oreg.) at 30° C. for 45 minutes. Loaded cells were washed twice, resuspended (~10^7 cells/mL) in assay buffer (10 mM HEPES/Tris pH 7.4 in Hank's Balanced Salt Solution without bicarbonate or phenol red containing 0.5% bovine serum albumin) and kept on ice until use. Fluorescence measurements were carried out in a Photon Technology International (PTI, South Brunswick, N.J.) Model RF-F3004 spectrofluorometer with dual emission monochromators using excitation at 350 nm and emission at 400 and 490 nm. The instrument was equipped with a thermostated cuvette holder with stirring capabilities as well as with a computer-controlled pump which allowed for reagent addition during measurement. Instrument control and data collection was done by PTI's OSCAR software running on an IBM compatible computer. Different concentrations of the test compounds (60 μL in dimethyl sulfoxide) were added to 5.94 mL of assay buffer containing approximately 3×10^6 loaded cells, and 5 μM nitrendipine (in 30 μL EtOH) to block L-type Ca^2+ channels. Samples were incubated for 10 minutes at 30° C. and then aliquoted into three 10×10 mm disposable acrylic cuvettes. Emission signals at 400 and 490 nm were acquired from each cuvette at 30° C. for 50 seconds. At 20 seconds after the start of reading, cells were depolarized by the addition of 160 μL of stimulation solution (1 M KCl, 68 mM CaCl2) to the cuvette via the computer-controlled pump. Ratio of dual emission signals (400 nm/ 490 nm), which is proportional to intracellular Ca^2+ concentration, was plotted against time, and the difference between maximal response after stimulation and basal value (before stimulation) was determined. Values obtained in this way were plotted as a function of drug concentration. IC50 values of test compounds were calculated by fitting a four-parameter logistic function to the data using the least squares method.

[1] = 5 μM nitrendipine, Examples 116-140, read-out: IMR 32% of Blockade @
[2] = K+ depolarization, 5 μM nitrendipine to block L-type channels, read-out: IMR 32 IC50

T1 sequence (Q00975 whole entry): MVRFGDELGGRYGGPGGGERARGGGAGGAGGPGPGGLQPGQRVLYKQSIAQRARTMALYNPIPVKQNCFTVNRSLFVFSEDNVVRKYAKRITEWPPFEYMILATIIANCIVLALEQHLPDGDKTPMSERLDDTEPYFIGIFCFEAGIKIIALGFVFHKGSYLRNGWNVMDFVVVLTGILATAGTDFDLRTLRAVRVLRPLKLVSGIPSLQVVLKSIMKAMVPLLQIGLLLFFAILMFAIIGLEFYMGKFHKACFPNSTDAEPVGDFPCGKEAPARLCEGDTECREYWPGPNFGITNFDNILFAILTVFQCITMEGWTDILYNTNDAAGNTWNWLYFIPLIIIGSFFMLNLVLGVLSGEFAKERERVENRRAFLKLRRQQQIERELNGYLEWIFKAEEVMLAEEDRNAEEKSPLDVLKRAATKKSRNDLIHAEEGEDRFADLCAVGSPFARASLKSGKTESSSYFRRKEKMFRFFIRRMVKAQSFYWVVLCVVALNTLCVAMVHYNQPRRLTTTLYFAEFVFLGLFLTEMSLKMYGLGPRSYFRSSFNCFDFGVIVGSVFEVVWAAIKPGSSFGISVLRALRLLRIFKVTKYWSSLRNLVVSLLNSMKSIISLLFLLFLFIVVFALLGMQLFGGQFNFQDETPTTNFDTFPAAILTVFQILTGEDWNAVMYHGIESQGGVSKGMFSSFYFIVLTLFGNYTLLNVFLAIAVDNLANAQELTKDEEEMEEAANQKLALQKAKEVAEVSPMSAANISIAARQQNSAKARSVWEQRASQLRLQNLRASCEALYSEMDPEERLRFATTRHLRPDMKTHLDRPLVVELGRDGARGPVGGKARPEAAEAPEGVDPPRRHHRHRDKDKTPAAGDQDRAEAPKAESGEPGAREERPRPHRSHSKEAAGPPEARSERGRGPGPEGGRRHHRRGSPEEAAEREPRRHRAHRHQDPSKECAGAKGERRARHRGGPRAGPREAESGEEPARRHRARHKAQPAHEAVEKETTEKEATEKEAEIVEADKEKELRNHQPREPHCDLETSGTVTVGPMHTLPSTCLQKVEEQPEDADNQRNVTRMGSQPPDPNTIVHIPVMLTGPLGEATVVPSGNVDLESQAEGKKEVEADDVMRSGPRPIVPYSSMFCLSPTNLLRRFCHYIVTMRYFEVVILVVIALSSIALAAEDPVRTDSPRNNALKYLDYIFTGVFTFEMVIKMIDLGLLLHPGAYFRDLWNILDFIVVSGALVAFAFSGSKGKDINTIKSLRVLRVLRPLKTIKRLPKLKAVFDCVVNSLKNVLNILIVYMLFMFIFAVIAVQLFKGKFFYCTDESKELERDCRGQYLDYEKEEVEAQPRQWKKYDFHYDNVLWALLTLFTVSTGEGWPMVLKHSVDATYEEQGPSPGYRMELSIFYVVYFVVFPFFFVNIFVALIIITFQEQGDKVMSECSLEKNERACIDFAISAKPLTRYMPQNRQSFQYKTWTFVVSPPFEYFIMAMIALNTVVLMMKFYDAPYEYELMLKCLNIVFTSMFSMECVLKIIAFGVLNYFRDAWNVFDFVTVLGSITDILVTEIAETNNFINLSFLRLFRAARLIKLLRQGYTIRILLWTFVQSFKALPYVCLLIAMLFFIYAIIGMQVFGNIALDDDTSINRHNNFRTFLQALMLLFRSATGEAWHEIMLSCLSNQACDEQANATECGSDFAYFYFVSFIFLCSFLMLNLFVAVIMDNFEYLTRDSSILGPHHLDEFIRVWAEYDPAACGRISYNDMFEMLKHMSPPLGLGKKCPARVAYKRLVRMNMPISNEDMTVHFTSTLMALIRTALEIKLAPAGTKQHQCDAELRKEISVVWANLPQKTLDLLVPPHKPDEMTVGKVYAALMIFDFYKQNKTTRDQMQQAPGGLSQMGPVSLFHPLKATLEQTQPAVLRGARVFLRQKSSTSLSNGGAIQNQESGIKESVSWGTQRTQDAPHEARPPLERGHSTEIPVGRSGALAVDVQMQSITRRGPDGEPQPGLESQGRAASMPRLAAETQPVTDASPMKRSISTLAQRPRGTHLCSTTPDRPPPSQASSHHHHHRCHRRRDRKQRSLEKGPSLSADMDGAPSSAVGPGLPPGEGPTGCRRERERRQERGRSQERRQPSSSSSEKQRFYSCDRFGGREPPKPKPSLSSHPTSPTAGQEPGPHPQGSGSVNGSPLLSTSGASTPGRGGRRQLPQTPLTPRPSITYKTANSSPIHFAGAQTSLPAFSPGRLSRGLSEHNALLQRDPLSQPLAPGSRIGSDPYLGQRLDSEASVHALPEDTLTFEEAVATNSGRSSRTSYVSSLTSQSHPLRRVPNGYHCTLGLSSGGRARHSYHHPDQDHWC
T1 sequence (P54284 whole entry partner): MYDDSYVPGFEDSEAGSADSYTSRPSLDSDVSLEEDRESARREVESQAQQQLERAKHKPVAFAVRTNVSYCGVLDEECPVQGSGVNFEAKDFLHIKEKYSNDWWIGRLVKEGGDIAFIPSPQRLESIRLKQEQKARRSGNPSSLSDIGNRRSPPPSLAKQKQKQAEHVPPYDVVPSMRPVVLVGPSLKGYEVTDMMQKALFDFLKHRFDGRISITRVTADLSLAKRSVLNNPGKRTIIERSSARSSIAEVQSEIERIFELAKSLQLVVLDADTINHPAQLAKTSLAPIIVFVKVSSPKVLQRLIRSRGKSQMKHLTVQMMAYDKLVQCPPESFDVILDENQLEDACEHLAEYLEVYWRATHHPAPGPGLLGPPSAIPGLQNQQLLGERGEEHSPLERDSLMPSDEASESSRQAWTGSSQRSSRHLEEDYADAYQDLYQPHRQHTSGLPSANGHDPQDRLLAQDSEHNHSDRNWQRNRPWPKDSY
T1 sequence (P54289 25-946 partner limits assumed): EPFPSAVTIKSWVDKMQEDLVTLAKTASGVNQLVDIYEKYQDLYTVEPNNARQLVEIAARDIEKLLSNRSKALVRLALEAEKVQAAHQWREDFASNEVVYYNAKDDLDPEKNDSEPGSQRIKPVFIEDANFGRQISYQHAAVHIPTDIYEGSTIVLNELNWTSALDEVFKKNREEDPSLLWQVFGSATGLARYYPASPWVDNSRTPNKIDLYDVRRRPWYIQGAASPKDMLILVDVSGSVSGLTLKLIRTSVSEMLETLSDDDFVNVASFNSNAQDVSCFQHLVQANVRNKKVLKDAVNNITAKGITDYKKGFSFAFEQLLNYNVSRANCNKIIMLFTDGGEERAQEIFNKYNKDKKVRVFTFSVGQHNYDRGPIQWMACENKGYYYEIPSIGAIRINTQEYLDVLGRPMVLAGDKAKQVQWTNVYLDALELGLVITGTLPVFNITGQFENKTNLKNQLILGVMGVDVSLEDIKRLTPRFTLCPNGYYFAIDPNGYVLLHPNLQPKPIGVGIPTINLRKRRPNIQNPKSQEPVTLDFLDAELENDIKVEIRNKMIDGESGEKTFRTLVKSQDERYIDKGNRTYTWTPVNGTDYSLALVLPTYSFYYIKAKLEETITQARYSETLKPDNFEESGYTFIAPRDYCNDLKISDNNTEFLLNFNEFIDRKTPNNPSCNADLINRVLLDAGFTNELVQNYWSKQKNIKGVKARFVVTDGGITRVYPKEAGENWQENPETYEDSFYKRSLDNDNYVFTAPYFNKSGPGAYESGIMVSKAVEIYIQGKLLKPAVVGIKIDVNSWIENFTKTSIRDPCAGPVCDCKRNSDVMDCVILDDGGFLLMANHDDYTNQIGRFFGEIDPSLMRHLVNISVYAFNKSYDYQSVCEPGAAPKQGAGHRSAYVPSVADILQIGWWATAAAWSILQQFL
T1 sequence (P54289 947-1103 partner limits assumed): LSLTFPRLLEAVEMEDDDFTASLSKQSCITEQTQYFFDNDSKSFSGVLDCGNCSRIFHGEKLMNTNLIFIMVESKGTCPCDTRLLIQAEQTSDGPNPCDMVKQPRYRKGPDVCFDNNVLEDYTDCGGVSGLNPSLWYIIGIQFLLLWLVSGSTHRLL

pIC50 [1] | pIC50 [2] | SMILES | other results
 | 6.38 | CC(C)CC(NCc1ccc(C(C)(C)C)cc1)C(=O)NC(Cc1ccc(OCc2ccccc2)cc1)C(=O)NC(C)(C)C (stereo not drawn) [Example 50, [S-(R*,R*)]-2-(4-tert-Butyl-benzylamino)-4-methyl-pentanoic acid [2-(4-benzyloxy-phenyl)-1-tert-butylcarbamoyl-ethyl]-amide] | 
 | 5.51 | CC(C)C[C@@H](C(=O)N[C@@H](Cc1ccc(OCc2ccccc2)cc1)C(=O)NC(C)(C)C)N(C)C1CCOCC1 (relative stereo) [Example 87, [S-(R*,R*)]-4-Methyl-2-[methyl-(tetrahydro-pyran-4-yl)-amino]-pentanoic acid [2-(4-benzyloxy-phenyl)-1-tert-butylcarbamoyl-ethyl]-amide] | 
 | 5.96 | CC(C)CCN(C)[C@@H](CC(C)C)C(=O)N[C@@H](Cc1ccc(OCc2ccccc2)cc1)C(=O)NC(C)(CO)CO (relative stereo) [Example 62, [S-(R*,R*)]-4-Methyl-2-[methyl-(3-methyl-butyl)-amino]-pentanoic acid [2-(4-benzyloxy-phenyl)-1-(2-hydroxy-1-hydroxymethyl-1-methyl-ethylcarbamoyl)-ethyl]-amide] | 
4.92 |  | CC(C)C[C@@H](C(=O)N[C@@H](Cc1ccc(OCc2ccccc2)cc1)C(=O)NCCN1CCOCC1)N(C)C (relative stereo) [Example 132, [S-(R*,R*)]-2-Dimethylamino-4-methyl-pentanoic acid [2-(4-benzyloxy-phenyl)-1-(2-morpholin-4-yl-ethylcarbamoyl)-ethyl]-amide] | 
 | 6.52 | CC(C)CC(C(=O)NC(Cc1ccc(OCc2ccccc2)cc1)C(=O)NC(C)(C)C)N(C)Cc1ccc(F)cc1 (stereo not drawn) [Example 80, [S-(R*,R*)]-2-[(4-Fluoro-benzyl)-methyl-amino]-4-methyl-pentanoic acid [2-(4-benzyloxy-phenyl)-1-tert-butylcarbamoyl-ethyl]-amide] | 

Further lines, the molecule ahead of its results:

SMILES | pIC50 [1] | pIC50 [2] | other results
CC(C)C[C@@H](C(=O)N[C@@H](Cc1ccc(OCc2ccccc2)cc1)C(=O)NCCN1CCCC1)N1CCOCC1 (relative stereo) [Example 125, [S-(R*,R*)]-4-Methyl-2-morpholin-4-yl-pentanoic acid [2-(4-benzyloxy-phenyl)-1-(2-pyrrolidin-1-yl-ethylcarbamoyl)-ethyl]-amide] | 5.01 |  | 
CC(C)C[C@@H](C(=O)N[C@@H](Cc1ccc(OCc2ccccc2)cc1)C(=O)N1CCN(Cc2ccccc2)CC1)N(C)Cc1ccc(C(C)(C)C)cc1 (relative stereo) [Example 16, [S-(R*,R*)-2-[(4-tert-Butyl-benzyl)-methyl-amino]-4-methyl-pentanoic acid [1-(4-benzyloxy-benzyl)-2-(4-benzyl-piperazin-1-yl)-2-oxo-ethyl]-amide] |  |  | IMR 32 % of Blockade @ 1 μM (5 μM nitrendipine): 41%; IMR 32 % of Blockade @ 10 μM (10 μM, 5 μM nitrendipine): 66%
CC(C)C[C@@H](C(=O)N[C@@H](Cc1ccc(OCc2ccccc2)cc1)C(=O)NC1CCN(Cc2ccccc2)CC1)N(C)C1CCCCC1 (relative stereo) [Example 23, [S-(R*,R*)]-2-(Cyclohexyl-methyl-amino)-4-methyl-pentanoic acid [2-(4-benzyloxy-phenyl)-1-(1-benzyl-piperidin-4-ylcarbamoyl)-ethyl]-amide] |  |  | IMR 32 % of Blockade @ 1 μM (5 μM nitrendipine): 53%; IMR 32 % of Blockade @ 3 μM (3 μM, 5 μM nitrendipine): 80%
CC(C)C[C@H](NCc1ccc(C(C)(C)C)cc1)C(=O)N[C@@H](Cc1ccc(OCc2ccccc2)cc1)C(=O)N1CCN(Cc2ccccc2)CC1 (relative stereo) [Example 52, [S-(R*,R*)]-2-(4-tert-Butyl-benzylamino)-4-methyl-pentanoic acid [1-(4-benzyloxy-benzyl)-2-(4-benzyl-piperazin-1-yl)-2-oxo-ethyl]-amide] |  | 6.11 | 
CC(C)C[C@@H](C(=O)N[C@@H](Cc1ccc(OCc2ccccc2)cc1)C(=O)NCCc1ccccn1)N1CCOCC1 (relative stereo) [Example 120, [S-(R*,R*)]-4-Methyl-2-morpholin-4yl-pentanoic acid [2-(4-benzyloxy-phenyl)-1-(2-pyridin-2-yl-ethylcarbamoyl)-ethyl]-amide] | 5.22 |  | 
